Assay results taken from US11628174B1, “Pharmaceutical compositions and methods for treating insomnia” (priority 2022, dated 2023).

Legend:
[1] = system: insomnia; assay: Clinical case reports: treatment of patients with insomnia; assay type: in vivo, human
[2] = system: REM sleep; settings: background statement; cited from earlier work
[3] = system: anti-IgE-induced release of prostaglandin D2 (PGD2) and leukotrienes C4/D4; release of cytokines; settings: background statement, cited from earlier work
[4] = system: allergic rhinitis; assay: Clinical case report: allergic rhinitis in a patient with insomnia; assay type: in vivo, human; settings: Example 1; ebastine 20 mg once a day, about 3 months
[5] = Clinical case reports: tolerability and side effects in patients with insomnia
Procedure: A patient had insomnia for more than 2 months before they were provided with medications.
A patient had insomnia for more than 3 months. […] After that, they were treated with the combination of ebastine (10 mg) and alprazolam (0.4 mg) daily.

SMILES: Cc1nnc2n1-c1ccc(Cl)cc1C(c1ccccc1)=NC2 [alprazolam, 8-chloro-1-methyl-6-phenyl-4H-s-triazolo[4,3-a] [1,4]benzodiazepine]
- chronic insomnia along with depression, improvement ([1]; Example 2, person, alprazolam 0.8 mg twice daily, 2 months): no improvement
- REM latency [2]: increases
- length of REM periods and frequency of REM burst activities [2]: significantly decreases

SMILES: CC(C)(C(=O)O)c1ccc(C(=O)CCCN2CCC(OC(c3ccccc3)c3ccccc3)CC2)cc1 [carebastine]
- release of PGD2 ([3]; metabolite of ebastine): inhibits

SMILES: CC(C)(C)c1ccc(C(=O)CCCN2CCC(OC(c3ccccc3)c3ccccc3)CC2)cc1 [ebastine, 4-diphenylmethoxy-1-[3-(4-tert-butylbenzoyl)-propyl] piperidine]
- insomnia (difficulty of falling to asleep) improvement ([1]; Example 1, person, ebastine 20 mg once a day, about 3 months): no improvement
- allergic rhinitis improvement [4]: only improved marginally
- anti-IgE-induced release of prostaglandin D2 (PGD2) and leukotrienes C4/D4 (LTC4/D4) [3]: significantly inhibits
- release of cytokines, including GM-CSF, tumour necrosis factor-a and interleukin-8 [3]: inhibited

SMILES: CN1CCN(C(=O)O[C@H]2c3nccnc3C(=O)N2c2ccc(Cl)cn2)CC1 [eszopiclone]
- tolerability (side effects of headache and dizziness) ([5]; Example 3, eszopiclone 1 mg daily for 2 weeks): could not tolerate the side effects of headache and dizziness
- tolerability (adverse reaction of headache) ([5]; Example 4, person, eszopiclone 1 mg daily for one week): could not tolerate its adverse reaction of headache

SMILES: Cc1ccc(-c2nc3ccc(C)cn3c2CC(=O)N(C)C)cc1 [zolpidem]
- tolerability (side effects of headache and dizziness) ([5]; Example 3, person, zolpidem 10 mg daily for 1 month): could not tolerate the side effects of headache and dizziness
